One assay relates to Bsp383FDH. As to the kind of experiment: Inhibition studies of Bsp383FDH-catalysed formate oxidation. It counts as biochemical, Burkholderia sp. 383. On the procedure: (§1) Inhibition of formate oxidation by Bsp383FDH or Bsp184FDH was performed in the presence of the following potential inhibitors: NaN3, NaNO2, KNO3, KNO2, KCN and iodoacetamide at 5 mM and 20 mM concentrations. In a typical procedure, 10 μL of enzyme, Bsp383FDH (0.022 mg/mL) or Bsp184FDH (0.020 mg/mL) was incubated in sodium phosphate buffer (50 mM, pH 7.0) containing 100 mM of formate (sodium formate) and 5 mM and 20 mM inhibitors concentrations for 5 minutes at room temperature. Reaction of formate oxidation was then initiated by addition of NADP in 5 mM final concentration. Absorbance at 340 nm due to NADPH formation was spectrophotometrically monitored using a microtiter plate reader. Absorbance was recorded at 10 seconds intervals for 10 minutes. Initial activities were then calculated using the linear part of the initial readings using at least 20 data points and used directly as relative activity values. Control experiments were also performed in the absence of the enzyme.

The test system of the next assay is Bsp184FDH. As to the kind of experiment: Inhibition studies of Bsp184FDH-catalysed formate oxidation. The class given is biochemical, Burkholderia cenocepacia PC184. As for the experimental part:
as §1

With `O=C[O-].[Na+]` [Formate salt], the “inhibition of BspFDH2” value in the assay on Bsp383FDH is reported as “does not inhibit”. Moreover, the “inhibition of BcenFDH1” value in the assay on Bsp184FDH is listed as “does not inhibit”.

These data come from patent publication US20100086958A1, “NOVEL ENZYME” (priority 2008, published 2010).
